What was measured:
[1] = test system: E. coli; assay: toxicity response in the microbial system; format: cell-based; details: system of the present invention; consistent with mammalian cell studies
Procedure: (§1) 2.0% cultures were grown from saturated overnight cultures at […] with shaking at 260 rpm for 3 hours. A 4.0% inoculum was mixed with […] top agar (10 g/L NaCl, 5.0 g/L yeast extract, 10 g/L tryptone, 7.0 g/L agar) and 10 ml was layered on 150 mm petri dishes containing LB and ampicillin. 10 μl of each drug to be tested was spotted onto the plate and incubated at 35° C. overnight. Colonies were screened when plated onto LB plates containing compounds that are known to activate oxidative stress genes, paraquat and hydrogen peroxide.
(§2) As the drug diffuses through the media, it created a concentration gradient.

[2] = test system: E. coli harboring the stress probes (soxS and sodA); assay: high throughput 96-well dose-response of stress probes; format: cell-based; details: for promoter probes turned on (mode of action): FIG. 5A and 5B
Procedure: 4. 0% cultures of E. coli harboring the stress probes were grown from a saturated overnight culture in 250 ml shake flasks containing 25 ml LB media and 100 μg/ml ampicillin at 35° C. with shaking at 260 rpm until the optical density reached 0.8 at 600 nm. 100 μl aliquots of culture were added to each well of a 96-well plate, along with 10 μl of various concentrations of the drug to be tested and incubated overnight. Experiments were run in duplicate. Fluorescence intensity and optical density measurements were taken using a Wallac 1420 VICTOR multilabel counter.
To test whether the procedure of Example 4 would work in a quantitative high throughput format, an experiment was conducted where the anti-tumor drug DNR was serially diluted and dose-response tested in a 96-well plate. For comparison, a similar experiment was conducted with paraquat.

[3] = test system: pCRA11, sodA promoter probe construct; assay: agar plate spotting, zone of induction (green halo); format: cell-based, E. coli; details: higher and varied concentrations of drugs spotted on plate, overnight
Procedure: as §1, §2

[4] = test system: zwf promoter probe; assay: stress probe-GFP fusion fluorescence after oxidative stress; format: cell-based, E. coli; details: varying concentrations of stressor, 4 hours post-stress
Source text: (§3) Using GenBank to obtain the genomic sequence for each of the oxidative stress response genes, PCR primers are designed to amplify the promoter region. Generally the target for amplification was approximately 300 base pairs and encompasses the sequence upstream from the native translational start site. […] The entire promoter region flanked by incorporated restriction sites was cloned in frame with GFP on a plasmid. The stress probes were then transformed into E. coli.
(§4) Cells containing each stress probe-GFP fusion were cultured to early log phase, stressed with varying concentrations of paraquat or H2O2, and the fluorescence intensity measured at 4 hours post-stress. Due to the lethality of the higher concentrations of stresses, dividing by optical density (OD) normalized the fluorescence intensity values.

[5] = test system: recA promoter probe; assay: as above; format: cell-based, E. coli; details: varying concentrations of stressor, 4 hours post-stress
Source text: as §3, §4

[6] = test system: sodA promoter probe; assay: as above; format: cell-based, E. coli; details: varying concentrations of stressor, 4 hours post-stress
Source text: as §3, §4

[7] = test system: dps promoter probe; assay: as above; format: cell-based, E. coli; details: varying concentrations of stressor, 4 hours post-stress
Source text: as §3, §4

[8] = test system: acnA promoter probe; assay: as above; format: cell-based, E. coli; details: varying concentrations of stressor, 4 hours post-stress
Source text: as §3, §4

[9] = test system: sodA-GFP stress probe; assay: rate of change of GFP signal; format: cell-based, E. coli; details: continuous stress by bolus of paraquat, FIG. 6
Source text: The rate of change of the GFP signal measures the rate of the stress protein induction. This experiment compares the response of the sodA promoter to stresses in the form of a bolus of paraquat in one culture and a transient exposure to hyperoxia in another. A control culture consisting of uninduced sodA:GFP was included for comparison. […] An uninduced culture was included for comparison purposes.
The disadvantages of GFP as a reporter gene are its lag time for fluorescence (approximately 90 minutes) and extraordinary stability. One way to compensate for these is to measure the rate of change of the GFP fluorescence, which is possible using an LED-based sensor that permits continuous in situ measurements. The cell specific rate of change of GFP normalized to optical density is then a measure of the rate of gene expression of the stress protein.

CCOC(=O)NC1=C(N2CC2)C(=O)C(NC(=O)OCC)=C(N2CC2)C1=O [AZQ, diaziquone]
rank order of toxicity response [1]: MeDZQ, DZQ, and AZQ, were ranked in decreasing order of toxicity response

COc1cccc2c1C(=O)c1c(O)c3c(c(O)c1C2=O)C[C@@](O)(C(C)=O)C[C@@H]3O[C@H]1C[C@H](N)[C@H](O)[C@H](C)O1 [DNR, daunorubicin]
promoter probes turned on (mode of action) ([2]; 96-well plate): turning on soxS and sodA
toxicity to cells beyond the concentration of maximal response ([2]; above 20 μM, 96-well plate): becomes toxic and kills cells
concentration at which maximal response is observed ([2]; serial dilution in 96-well plate, overnight, FIG. 5A): 20 µM

O=C1C=C(N2CC2)C(=O)C=C1N1CC1 [DZQ]
rank order of toxicity response [1]: MeDZQ, DZQ, and AZQ, were ranked in decreasing order of toxicity response

COc1cccc2c1C(=O)c1c(O)c3c(c(O)c1C2=O)C[C@@](O)(C(=O)CO)C[C@@H]3O[C@H]1C[C@H](N)[C@H](O)[C@H](C)O1 [Doxorubicin, doxorubicin]
induction of sodA promoter probe compared with induction of recA [3]: stronger induction of sodA than its induction of recA

CC1=C(N2CC2)C(=O)C(C)=C(N2CC2)C1=O [MeDZQ, methyl diaziridinequinone]
rank order of toxicity response [1]: MeDZQ, DZQ, and AZQ, were ranked in decreasing order of toxicity response

OO [hydrogen peroxide]
fluorescence intensity normalized by optical density, zwf promoter probe [4]: no inducible response
fluorescence intensity normalized by optical density, recA promoter probe [5]: dose dependent response
fluorescence intensity normalized by optical density, sodA promoter probe [6]: no inducible response
fluorescence intensity normalized by optical density, dps promoter probe [7]: dose dependent response
fluorescence intensity normalized by optical density, acnA promoter probe [8]: no inducible response

C[n+]1ccc(-c2cc[n+](C)cc2)cc1 [paraquat]
fluorescence intensity normalized by optical density, zwf promoter probe [4]: dose dependent response
fluorescence intensity normalized by optical density, recA promoter probe [5]: do not show a dose dependent response and are only inducible when exposed to higher paraquat concentrations
fluorescence intensity normalized by optical density, sodA promoter probe [6]: dose dependent response
fluorescence intensity normalized by optical density, dps promoter probe [7]: do not show a dose dependent response and are only inducible when exposed to higher paraquat concentrations
fluorescence intensity normalized by optical density, acnA promoter probe [8]: dose dependent response
promoter probes turned on (mode of action) ([2]; 96-well plate): turning on soxS and sodA
shape of dose response ([2]; serial dilution in 96-well plate, overnight, FIG. 5B): monotonically increasing response
rate of sodA expression (GFP derivative) [9]: continual gene expression of sodA
